Results: patent publication US20240158446A1, “CYCLIC COMPOUND HAVING SELECTIVE INHIBITORY ACTION ON KRAS OVER HRAS AND NRAS” (CHUGAI SEIYAKU KABUSHIKI KAISHA, priority 2021, published 2024)
*1 amine or outer side, *2 acyl side, *3 side chain or, on linkers, in order; H or OH if unused. Where a SMILES comes first, the peptide text is derived from it. Bridges are numbered along the chain shown (N, C = ends). [ ]: non-standard residue; d: D form. The star is where a group is joined. hPhe(3-Cl-4-CF3) = N[C@@H](CCc1ccc(C(F)(F)F)c(Cl)c1)C(=O)O; NPrPhe(4-CF3) = CCCN[C@@H](Cc1ccc(C(F)(F)F)cc1)C(=O)O; X4 = CCCN([C@@H](CC(C)C)C(=O)[*:2])[*:1]; NMeGly(cPent) = CN[C@H](C(=O)O)C1CCCC1; NMeD = CN[C@@H](CC(=O)O)C(=O)O; Morpholide = C1CN(*)CCO1; Ac4c = NC1(C(=O)O)CCC1; Sar = CNCC(=O)O

Key:
[1] = biological target: GDP-bound KRAS wild-type protein (Homo sapiens, UniProt P01116); assay: Binding to KRAS by surface plasmon resonance (SPR), Single Cycle Kinetics; conditions: SPR, Single Cycle Kinetics, GDP-bound KRAS wild-type protein; read-out: KRAS KD
[2] = biological target: GDP-bound NRAS wild-type protein (Homo sapiens, UniProt P01111); assay: Binding to NRAS by surface plasmon resonance (SPR), Single Cycle Kinetics; conditions: ratio of KD for GDP-bound NRAS wild-type protein to KD for KRAS, SPR
[3] = biological target: GDP-bound HRAS wild-type protein (Homo sapiens, UniProt P01112); assay: Binding to HRAS by surface plasmon resonance (SPR), Single Cycle Kinetics; conditions: ratio of KD for GDP-bound HRAS wild-type protein to KD for KRAS, SPR
[4] = tested on: human lung cancer strain NCI-H441; assay: cells; conditions: NCI-H441, 96 h, read-out: NCI-H441 IC50 (nM), NCI-H441 cell proliferation, 4 days, CellTiter-Glo;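 note: cell proliferation inhibition after four days measured by CellTiter-Glo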

Chain of GDP-bound KRAS wild-type protein (P01116 whole entry): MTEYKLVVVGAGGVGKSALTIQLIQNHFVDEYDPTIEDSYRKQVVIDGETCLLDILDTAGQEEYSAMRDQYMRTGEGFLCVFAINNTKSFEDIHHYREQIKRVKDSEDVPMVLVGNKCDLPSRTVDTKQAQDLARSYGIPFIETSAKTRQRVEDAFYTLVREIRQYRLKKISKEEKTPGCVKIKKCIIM
Chain of GDP-bound HRAS wild-type protein (P01112 whole entry): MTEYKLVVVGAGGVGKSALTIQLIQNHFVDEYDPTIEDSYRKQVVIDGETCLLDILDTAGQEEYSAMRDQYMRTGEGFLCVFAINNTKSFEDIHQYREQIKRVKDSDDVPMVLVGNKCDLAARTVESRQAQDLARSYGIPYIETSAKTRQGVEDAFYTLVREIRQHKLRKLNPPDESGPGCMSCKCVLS
Chain of GDP-bound NRAS wild-type protein (P01111 whole entry): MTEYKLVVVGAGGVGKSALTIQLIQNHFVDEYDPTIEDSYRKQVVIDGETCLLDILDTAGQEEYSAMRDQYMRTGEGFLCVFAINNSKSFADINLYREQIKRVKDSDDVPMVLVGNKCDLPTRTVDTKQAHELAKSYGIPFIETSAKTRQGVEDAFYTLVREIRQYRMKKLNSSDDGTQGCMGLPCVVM

| Kd [1] | IC50 [4] | SMILES | NRAS/KRAS (KD ratio) [2] | HRAS/KRAS (KD ratio) [3] |
| --- | --- | --- | --- | --- |
| 0.039 nM | 3.3 nM | CCO[C@@H]1C[C@H]2C(=O)NC3(CC(C)(C)C3)C(=O)N(C)[C@@H](C3CCCC3)C(=O)N(C)[C@H](C(=O)N(C)C)CC(=O)N(C)[C@@H](CC3CC3)C(=O)N[C@@H]([C@@H](C)CC)C(=O)N(C)CC(=O)N(C)[C@H]3C/C=C\CCN(C3=O)[C@@H](Cc3ccc(C(F)(F)F)cc3)C(=O)N(C)CC(=O)N[C@@H](CCc3ccc(C(F)(F)F)c(Cl)c3)C(=O)N2C1 [PP1749] | A (a compound having 10 or more and less than 20 is denoted as A) | A (a compound having 10 or more and less than 20 is denoted as A) |
| 0.11 nM | 10.3 nM | CC[C@H](C)[C@@H]1NC(=O)[C@H](C2CCC2)N(C)C(=O)C[C@@H](C(=O)N(C)C)N(C)C(=O)[C@H](C2CCCC2)N(C)C(=O)C2(CC(C)(C)C2)NC(=O)[C@@H]2C[C@H](C)CN2C(=O)[C@H](CCc2ccc(C(F)(F)F)c(OC)c2)NC(=O)CN(C)C(=O)[C@H](Cc2ccc(C(F)(F)F)cc2)N2CC/C=C\C[C@@H](C2=O)N(C)C(=O)CN(C)C1=O [PP2011] | A (a compound having 10 or more and less than 20 is denoted as A) | A (a compound having 10 or more and less than 20 is denoted as A) |
| 0.065 nM | 1.5 nM | CCCN(C)C(=O)[C@@H]1CC(=O)N(C)[C@@H](COC)C(=O)N[C@@H]([C@@H](C)CC)C(=O)N(C)CC(=O)N(C)[C@H]2C/C=C\CCN(C2=O)[C@@H](Cc2ccc(C(F)(F)F)cc2)C(=O)N(C)CC(=O)N[C@@H](CCc2ccc(C(F)(F)F)c(OC)c2)C(=O)N2C[C@H](OCC)C[C@H]2C(=O)NC2(CC(C)(C)C2)C(=O)N(C)[C@@H](C2CCCC2)C(=O)N1C [PP1656] | AA (a compound having 20 or more is denoted as AA) | A (a compound having 10 or more and less than 20 is denoted as A) |
| 0.14 nM | 20.2 nM | CCCN(C)C(=O)[C@@H]1CC(=O)N(C)[C@@H](C2CC2)C(=O)N[C@@H]([C@@H](C)CC)C(=O)N(C)CC(=O)N(C)[C@H]2C/C=C\CCN(C2=O)[C@@H](Cc2ccc(C(F)(F)F)cc2)C(=O)N(C)CC(=O)N[C@@H](CCc2ccc(C(F)(F)F)c(OC)c2)C(=O)N2C[C@H](OCC)C[C@H]2C(=O)NC2(CC(C)(C)C2)C(=O)N(C)[C@@H](C2CCCC2)C(=O)N1C [PP1983] | AA (a compound having 20 or more is denoted as AA) | A (a compound having 10 or more and less than 20 is denoted as A) |
| 3 nM | 108 nM | CCO[C@@H]1C[C@H]2C(=O)NC3(CC(F)(F)C3)C(=O)N(C)[C@@H](C(CC)CC)C(=O)N(C)[C@H](CC)CC(=O)N(C)[C@@H](CC)C(=O)N[C@@H]([C@@H](C)CC)C(=O)N(C)CC(=O)N(C)[C@H]3C/C=C\CCN(C3=O)[C@@H](Cc3ccc(C(F)(F)F)cc3)C(=O)N(C)CC(=O)N[C@@H](CCc3cc(F)c(C(F)(F)F)c(F)c3)C(=O)N2C1 [PP1626] | A (a compound having 10 or more and less than 20 is denoted as A) | A (a compound having 10 or more and less than 20 is denoted as A) |
| 0.12 nM | 4.5 nM | CCCN(C)C(=O)[C@@H]1CC(=O)N(C)[C@@H](CC(F)F)C(=O)N[C@@H]([C@@H](C)CC)C(=O)N(C)CC(=O)N(C)[C@H]2C/C=C\CCN(C2=O)[C@@H](Cc2ccc(C(F)(F)F)cc2)C(=O)N(C)CC(=O)N[C@@H](CCc2cc(F)c(C(F)(F)F)c(F)c2)C(=O)N2C[C@H](OCC)C[C@H]2C(=O)NC2(CC(C)(C)C2)C(=O)N(C)[C@@H](C2CCCC2)C(=O)N1C [PP2030] | A (a compound having 10 or more and less than 20 is denoted as A) | A (a compound having 10 or more and less than 20 is denoted as A) |
| 0.19 nM | 14.8 nM | CCO[C@@H]1C[C@H]2C(=O)NC3(CC(C)(C)C3)C(=O)N(C)[C@@H](C3CCCC3)C(=O)N(C)[C@H](C(=O)N3CCCC3)CC(=O)N(C)[C@@H](CC)C(=O)N[C@@H]([C@@H](C)CC)C(=O)N(C)CC(=O)N(C)[C@H]3C/C=C\CCN(C3=O)[C@@H](Cc3ccc(C(F)(F)F)cc3)C(=O)N(C)CC(=O)N[C@@H](CCc3cc(F)c(C(F)(F)F)c(F)c3)C(=O)N2C1 [PP1944] | A (a compound having 10 or more and less than 20 is denoted as A) | A (a compound having 10 or more and less than 20 is denoted as A) |
| 0.079 nM | 2.3 nM | CCO[C@@H]1C[C@H]2C(=O)NC3(CC(C)(C)C3)C(=O)N(C)[C@@H](C3CCCC3)C(=O)N(C)[C@H](C(=O)N(C)C)CC(=O)N(C)[C@@H](CC3CCC3)C(=O)N[C@@H]([C@@H](C)CC)C(=O)N(C)CC(=O)N(C)[C@H]3C/C=C\CCN(C3=O)[C@@H](Cc3ccc(C(F)(F)F)cc3)C(=O)N(C)CC(=O)N[C@@H](CCc3cc(F)c(C(F)(F)F)c(F)c3)C(=O)N2C1 [PP1651] | A (a compound having 10 or more and less than 20 is denoted as A) | B (a compound having 3 or more and less than 10 is denoted as B) |
| 0.23 nM | 6.3 nM | CCO[C@@H]1C[C@H]2C(=O)NC3(CC(C)(C)C3)C(=O)N(C)[C@@H](C3CCCC3)C(=O)N(C)[C@H](C(=O)N(C)CC)CC(=O)N(C)[C@@H](CC(C)C)C(=O)N[C@@H]([C@@H](C)OCC)C(=O)N(C)CC(=O)N(C)[C@H]3C/C=C\CCN(C3=O)[C@@H](Cc3ccc(C(F)(F)F)cc3)C(=O)N(C)CC(=O)N[C@@H](CCc3cc(F)c(C(F)(F)F)c(F)c3)C(=O)N2C1 [PP1919] | A (a compound having 10 or more and less than 20 is denoted as A) | A (a compound having 10 or more and less than 20 is denoted as A) |
| 0.3 nM | 50.8 nM | CC[C@H](C)[C@@H]1NC(=O)[C@H](C2CCC2)N(C)C(=O)C[C@@H](C(=O)N(C)CC)N(C)C(=O)[C@H](C2CCCC2)N(C)C(=O)C2(CC(C)(C)C2)NC(=O)[C@@H]2C[C@H](C)CN2C(=O)[C@H](CCc2cc(F)c(C(F)(F)F)c(F)c2)NC(=O)CN(C)C(=O)[C@H](Cc2ccc(C(F)(F)F)cc2)N2CC/C=C\C[C@@H](C2=O)N(C)C(=O)CN(C)C1=O [PP1984] | A (a compound having 10 or more and less than 20 is denoted as A) | A (a compound having 10 or more and less than 20 is denoted as A) |
| 0.34 nM | 83 nM | CCCN1C(=O)C[C@@H](C(=O)N2CCOCC2)N(C)C(=O)[C@H](C2CCCC2)N(C)C(=O)C2(CCC2)NC(=O)[C@@H]2CCCN2C(=O)[C@H](CCc2ccc(C(F)(F)F)c(Cl)c2)NC(=O)CN(C)C(=O)[C@H](Cc2ccc(C(F)(F)F)cc2)N(CCC)C(=O)CN(C)C(=O)CN(C)C(=O)[C@H](C(C)C)NC(=O)[C@@H]1CC(C)C [PP1815] ([X4]V[Sar][Sar][NPrPhe(4-CF3)][Sar][hPhe(3-Cl-4-CF3)]P[Ac4c][NMeGly(cPent)][NMeD]-Morpholide; lactam N-11) | B (a compound having 3 or more and less than 10 is denoted as B) | B (a compound having 3 or more and less than 10 is denoted as B) |
| 0.29 nM | 20.2 nM | CCO[C@@H]1C[C@H]2C(=O)NC3(CCC3)C(=O)N(C)[C@@H](C3CCCC3)C(=O)N(C)[C@H](CC)CC(=O)N(C)[C@@H](CC)C(=O)N[C@@H]([C@@H](C)CC)C(=O)N(C)CC(=O)N(C)[C@H]3C/C=C\CCN(C3=O)[C@@H](Cc3ccc(C(F)(F)F)cc3)C(=O)N(C)CC(=O)N[C@@H](CCc3cc(F)c(C(F)(F)F)c(F)c3)C(=O)N2C1 [PP1625] | B (a compound having 3 or more and less than 10 is denoted as B) | B (a compound having 3 or more and less than 10 is denoted as B) |
| 0.14 nM | 6.4 nM | CC[C@H](C)[C@@H]1NC(=O)[C@H](CC(C)C)N(C)C(=O)C[C@@H](C(=O)N(C)C)N(C)C(=O)[C@H](C2CCCC2)N(C)C(=O)C2(CC(C)(C)C2)NC(=O)[C@@H]2C[C@H](C)CN2C(=O)[C@H](CCc2cc(F)c(C(F)(F)F)c(F)c2)NC(=O)CN(C)C(=O)[C@H](Cc2ccc(C(F)(F)F)cc2)N2CC/C=C\C[C@@H](C2=O)N(C)C(=O)CN(C)C1=O [PP1662] | A (a compound having 10 or more and less than 20 is denoted as A) | B (a compound having 3 or more and less than 10 is denoted as B) |
| 0.12 nM | 1.9 nM | CCO[C@@H]1C[C@H]2C(=O)NC3(CC(C)(C)C3)C(=O)N(C)[C@@H](C3CCCC3)C(=O)N(C)[C@H](C(=O)N(C)CC)CC(=O)N(C)[C@@H](CC)C(=O)N[C@@H]([C@@H](C)CC)C(=O)N(C)CC(=O)N(C)[C@H]3C/C=C\CCN(C3=O)[C@@H](Cc3ccc(C)cc3)C(=O)N(C)CC(=O)N[C@@H](CCc3cc(F)c(C(F)(F)F)c(F)c3)C(=O)N2C1 [PP1886] | A (a compound having 10 or more and less than 20 is denoted as A) | B (a compound having 3 or more and less than 10 is denoted as B) |
| 0.096 nM | 7.9 nM | CC[C@H](C)[C@@H]1NC(=O)[C@H](CC2CC2)N(C)C(=O)C[C@@H](C(=O)N(C)C)N(C)C(=O)[C@H](C2CCCC2)N(C)C(=O)C2(CC(C)(C)C2)NC(=O)[C@@H]2CC(F)(F)CN2C(=O)[C@H](CCc2cc(F)c(C(F)(F)F)c(F)c2)NC(=O)CN(C)C(=O)[C@H](Cc2ccc(C(F)(F)F)cc2)N2CC/C=C\C[C@@H](C2=O)N(C)C(=O)CN(C)C1=O [PP1713] | A (a compound having 10 or more and less than 20 is denoted as A) | A (a compound having 10 or more and less than 20 is denoted as A) |
